The results in this text go back to patent US6107313A, “Dopamine receptor antagonists” (CombiChem, Inc., priority 1998, dated 2000).

Assay [1] addresses T1, Dopamine, D2s (Human Recombinant) (Homo sapiens, UniProt P14416).
T1 construct: expressed in transfected cells; host or cells: A9L cells (membranes)
Briefly: dopamine D2 receptor binding assay, [3H]spiperone, human recombinant (A9L cells). The note with it: 1 h, N = 2, read-out: % Specific Binding; for activity at 10 µM: concentration 1.0E-5, average; for activity at 1 µM: concentration 1.0E-6, average; for activity at 0.1 µM: concentration 1.0E-7, average; for activity at 0.01 µM: concentration 1.0E-8, average; for activity at 0.001 µM: concentration 1.0E-9, average; for activity at 3 µM: concentration 3.0E-6, average; for activity at 0.3 µM: concentration 3.0E-7, average; for activity at 0.03 µM: concentration 3.0E-8, average; for activity at 0.003 µM: concentration 3.0E-9, average; for activity at 0.0003 µM: concentration 3.0E-10, average. Here is the method: (§1) Following incubation, the membranes were rapidly filtered under vacuum through GF/B glass fiber filters (Packard). The filters were then washed several times with an ice-cold buffer using a Packard cell harvester.
(§2) Bound radioactivity was measured with a scintillation counter (Topcount, Packard) using a liquid scintillation cocktail (Microscint 0, Packard).
(§3) The compounds were tested in each assay at ten concentrations in duplicate to obtain competition curves.
(§4) In each experiment, the respective reference compound was simultaneously tested at eight concentrations in duplicate to obtain competition curves in order to validate this experiment.
(§5) The specific radioligand binding to the receptors is defined as the difference between total binding and nonspecific binding determined in the presence of an excess of unlabelled ligand (see section 2.1).
(§6) Results are expressed as a percent of control specific binding obtained in the presence of the test compounds.
(§7) These parameters were obtained by Hill equation curve fitting. The inhibition constants (Ki) were calculated from the Cheng Prusoff equation (Ki =IC50 /(1+L/KD), where L=concentration of radioligand in the assay, and KD=affinity of radioligand for the receptor).
(§8) Reactions were carried out in 50 mM TRIS-HCl (pH 7.4) containing 120 mM NaCl, 5 mM KCl, 5 mM MgCl2, 1mM EDTA for 60 minutes at 25 ° C. The reaction was terminated by rapid vacuum filtration onto glass fiber filters. Radioactivity trapped onto the filters was determined and compared to control values in order to ascertain any interactions of test compound(s) with the cloned dopamine D2 short binding site.

Assay [2] concerns the target T2, Dopamine, D4.4 (Human Recombinant) (Homo sapiens, UniProt P21917).
T2 construct: expressed in transfected cells; host or cells: CHO cells (membranes)
T2 sequence (P21917 1-419): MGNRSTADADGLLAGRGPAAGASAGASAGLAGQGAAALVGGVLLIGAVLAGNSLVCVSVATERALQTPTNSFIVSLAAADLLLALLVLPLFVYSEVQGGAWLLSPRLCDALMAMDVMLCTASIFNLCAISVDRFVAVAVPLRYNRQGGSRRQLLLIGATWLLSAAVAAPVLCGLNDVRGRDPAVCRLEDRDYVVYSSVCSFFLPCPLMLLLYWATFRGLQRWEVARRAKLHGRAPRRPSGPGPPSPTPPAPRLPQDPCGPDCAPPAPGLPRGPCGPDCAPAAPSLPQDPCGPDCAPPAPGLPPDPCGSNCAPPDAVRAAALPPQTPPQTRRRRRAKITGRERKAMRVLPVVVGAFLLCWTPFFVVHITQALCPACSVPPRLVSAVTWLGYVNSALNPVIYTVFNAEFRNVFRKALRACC
Put plainly: dopamine D4.4 receptor binding assay, [3H]spiperone, human recombinant (CHO cells). The note with it: 1 h, N = 2, read-out: % Specific Binding; for activity at 10 µM: concentration 1.0E-5, average; for activity at 1 µM: concentration 1.0E-6, average; for activity at 0.1 µM: concentration 1.0E-7, average; for activity at 0.01 µM: concentration 1.0E-8, average; for activity at 0.001 µM: concentration 1.0E-9, average; for activity at 3 µM: concentration 3.0E-6, average; for activity at 0.3 µM: concentration 3.0E-7, average; for activity at 0.03 µM: concentration 3.0E-8, average; for activity at 0.003 µM: concentration 3.0E-9, average; for activity at 0.0003 µM: concentration 3.0E-10, average. Here is the method:
[The source words this procedure for another target and reports this target under the same test.] as §1, §2, §3, §4, §5, §6, §7, §8

T1 sequence (P14416 1-414 isoform P14416-2): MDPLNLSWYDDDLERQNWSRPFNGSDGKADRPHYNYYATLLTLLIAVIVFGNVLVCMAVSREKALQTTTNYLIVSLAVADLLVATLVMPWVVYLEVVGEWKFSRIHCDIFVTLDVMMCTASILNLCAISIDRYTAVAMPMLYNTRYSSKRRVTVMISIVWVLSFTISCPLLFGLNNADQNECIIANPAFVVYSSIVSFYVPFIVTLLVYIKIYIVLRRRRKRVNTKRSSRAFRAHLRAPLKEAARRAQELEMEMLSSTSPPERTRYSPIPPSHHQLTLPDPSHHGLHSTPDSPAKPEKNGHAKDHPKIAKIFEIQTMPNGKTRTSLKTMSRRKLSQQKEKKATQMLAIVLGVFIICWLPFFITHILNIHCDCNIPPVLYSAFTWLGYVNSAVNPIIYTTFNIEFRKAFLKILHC

With `Cc1ccc(-c2noc(C3CCN(Cc4ccc(Cl)c(Cl)c4)CC3)n2)cc1` [Compound 5a, 4-(3-p-tolyl-1,2,4-oxadiazol-5-yl)-N-(3,4-dichlorobenzyl) piperidine], in assay [1], the activity at 10 µM was found to be 116%, the activity at 1 µM was 102%, the activity at 0.1 µM was 84.7% and the activity at 0.01 µM was 89.7%. In assay [1], the activity at 0.001 µM was found to be 93.4%, the activity at 3 µM is 99.4%, the activity at 0.3 µM came out at 101% and the activity at 0.03 µM turned out to be 107%. Besides, in assay [1], the activity at 0.003 µM turned out to be 90.8% and the activity at 0.0003 µM came out at 89.9%. Moreover, in assay [2], the activity at 10 µM is 3.57%, the activity at 1 µM worked out at 46.6%, the activity at 0.1 µM stood at 76.8% and the activity at 0.01 µM worked out at 81%. For the same molecule, in assay [2], the activity at 0.001 µM is 80.2%, the activity at 3 µM was 16.4%, the activity at 0.3 µM came to 80.4% and the activity at 0.03 µM turned out to be 76.3%. In addition, in assay [2], the activity at 0.003 µM came out at 84.4% and the activity at 0.0003 µM is 90.9%.
For `Clc1ccc(CN2CCC(c3nc(-c4cccs4)no3)CC2)cc1` [Compound 5b, 4-[3-(2-thienyl)-1,2,4-oxadiazol-5-yl]-N-(4-chlorobenzyl) piperidine], in assay [1], the activity at 10 µM worked out at 24.6%, the activity at 1 µM was 91.3%, the activity at 0.1 µM is 112% and the activity at 0.01 µM stood at 103%. Further, in assay [1], the activity at 0.001 µM was 104%, the activity at 3 µM came out at 61.9%, the activity at 0.3 µM worked out at 116% and the activity at 0.03 µM was 104%. For the same molecule, in assay [1], the activity at 0.003 µM stood at 97.3% and the activity at 0.0003 µM was found to be 116%. Further, in assay [2], the activity at 10 µM is -3.8%, the activity at 1 µM was found to be 0.44%, the activity at 0.1 µM was 22.8% and the activity at 0.01 µM was determined as 53.6%. For the same molecule, in assay [2], the activity at 0.001 µM was 76%, the activity at 3 µM is -0.19%, the activity at 0.3 µM stood at 4.28% and the activity at 0.03 µM is 29.7%. In assay [2], the activity at 0.003 µM came to 73.1% and the activity at 0.0003 µM worked out at 82.3%.
As to `Clc1cccc(CN2CCC(c3nc(-c4cccs4)no3)CC2)c1` [Compound 5c, 4-[3-(2-thienyl)-1,2,4-oxadiazol-5-yl]-N-(3-chlorobenzyl) piperidine], in assay [1], the activity at 10 µM came to 33%, the activity at 1 µM stood at 101%, the activity at 0.1 µM stood at 87.7% and the activity at 0.01 µM was 88.3%. Also, in assay [1], the activity at 0.001 µM is 94.8%, the activity at 3 µM turned out to be 102%, the activity at 0.3 µM worked out at 94.6% and the activity at 0.03 µM was determined as 84.9%. Also, in assay [1], the activity at 0.003 µM is 108% and the activity at 0.0003 µM is 98.5%. Further, in assay [2], the activity at 10 µM was -7.32%, the activity at 1 µM is 1.74%, the activity at 0.1 µM turned out to be 29.2% and the activity at 0.01 µM is 81.9%. Also, in assay [2], the activity at 0.001 µM worked out at 107%, the activity at 3 µM stood at 4.6%, the activity at 0.3 µM came to 4.79% and the activity at 0.03 µM was 60%. In assay [2], the activity at 0.003 µM stood at 95.2% and the activity at 0.0003 µM worked out at 109%.
On to `COc1ccc(CN2CCC(c3nc(-c4ccccc4C)no3)CC2)cc1` [Compound 5d, 4-(3-o-tolyl-1,2,4-oxadiazol-5-yl)-N-(4-methoxybenzyl) piperidine], for which, in assay [1], the activity at 10 µM stood at 39.5%, the activity at 1 µM was determined as 106%, the activity at 0.1 µM stood at 105% and the activity at 0.01 µM came out at 100%. Besides, in assay [1], the activity at 0.001 µM came to 104%, the activity at 3 µM came to 113%, the activity at 0.3 µM was found to be 117% and the activity at 0.03 µM worked out at 99.8%. In assay [1], the activity at 0.003 µM amounted to 105% and the activity at 0.0003 µM was 85.2%. In assay [2], the activity at 10 µM stood at 2.15%, the activity at 1 µM came out at 6.58%, the activity at 0.1 µM was 47.5% and the activity at 0.01 µM was found to be 92.1%. Besides, in assay [2], the activity at 0.001 µM came out at 102%, the activity at 3 µM worked out at 12.2%, the activity at 0.3 µM amounted to 22.9% and the activity at 0.03 µM came to 77.1%. Besides, in assay [2], the activity at 0.003 µM was determined as 96.4% and the activity at 0.0003 µM turned out to be 101%.
